The values that follow come from article PMC3170524 (Physiological research / Academia Scientiarum Bohemoslovaca, 2010).

Test in all cases: whole-cell patch clamp, peak current dose-response
What all share (type): cell-based

Assay [1] has as its target T1, rat P2X4R (Rattus norvegicus, UniProt P51577, C165A).
T1 sequence (P51577 1-388 C165A): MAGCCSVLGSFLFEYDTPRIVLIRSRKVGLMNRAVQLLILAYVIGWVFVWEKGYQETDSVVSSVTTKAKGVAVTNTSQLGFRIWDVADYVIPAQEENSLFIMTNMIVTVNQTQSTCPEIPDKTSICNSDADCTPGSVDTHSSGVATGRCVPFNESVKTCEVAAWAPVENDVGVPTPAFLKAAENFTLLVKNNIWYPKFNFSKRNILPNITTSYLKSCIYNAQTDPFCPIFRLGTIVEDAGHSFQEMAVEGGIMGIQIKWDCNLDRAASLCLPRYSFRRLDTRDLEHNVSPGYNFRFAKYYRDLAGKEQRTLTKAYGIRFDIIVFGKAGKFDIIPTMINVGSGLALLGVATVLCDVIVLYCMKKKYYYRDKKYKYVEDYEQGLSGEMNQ

Assay [2] addresses T2, rat P2X4R (Rattus norvegicus, UniProt P51577, C270T).
T2 sequence (P51577 1-388 C270T): T1 sequence (P51577 1-388 C165A) with A165C, C270T

Assay [3] deals with T3, rat P2X4R (Rattus norvegicus, UniProt P51577, C217R).
T3 sequence (P51577 1-388 C217R): T1 sequence (P51577 1-388 C165A) with A165C, C217R

Assay [4] concerns the target T4, rat P2X4R (Rattus norvegicus, UniProt P51577, C261T/C270T).
T4 sequence (P51577 1-388 C261T/C270T): T1 sequence (P51577 1-388 C165A) with A165C, C261T, C270T

Assay [5] deals with T5, rat P2X4R (Rattus norvegicus, UniProt P51577, C261A).
T5 sequence (P51577 1-388 C261A): T1 sequence (P51577 1-388 C165A) with A165C, C261A

Assay [6] deals with T6, rat P2X4R (Rattus norvegicus, UniProt P51577, C132A).
T6 sequence (P51577 1-388 C132A): T1 sequence (P51577 1-388 C165A) with C132A, A165C

In assay [7] the target is T7, rat P2X4R (Rattus norvegicus, UniProt P51577, C116A).
T7 sequence (P51577 1-388 C116A): T1 sequence (P51577 1-388 C165A) with C116A, A165C

What is called EC50 is the concentration that produces a half-maximal response. The low end stands for a more potent agent, the high end for a less potent agent.

Where a chain is given by its changes, count along the chain named.

As for `Nc1ncnc2c1ncn2[C@@H]1O[C@H](COP(=O)(O)OP(=O)(O)OP(=O)(O)O)[C@@H](O)[C@H]1O` [ATP], the EC50 at rat P2X4R [1] amounted to 42 ± 8.9 µM; on rat P2X4R [2], 3.4 ± 1.8 µM; on rat P2X4R [3] it was 9.2 ± 2.3 µM; on rat P2X4R [4], 1.7 ± 0.8 µM; on rat P2X4R [5], 5.5 ± 1.7 µM; at rat P2X4R [6], 14 ± 4.1 µM. This compound displayed a concentration giving a half-maximal response (EC50) at rat P2X4R [7] of 27 ± 6.5 µM.
